{"source": "patent US4101650A", "about": "“Pepstatin floating minicapsules” (Zaidan Hojin Biseibutsu Kagaku Kenkyu Kai, priority 1977, dated 1978)", "origin": "cited, not measured here", "key": {"cathepsin D": {"molecular_target": "cathepsin D (Homo sapiens, UniProt P07339)", "sequence (P07339 65-412, species assumed)": "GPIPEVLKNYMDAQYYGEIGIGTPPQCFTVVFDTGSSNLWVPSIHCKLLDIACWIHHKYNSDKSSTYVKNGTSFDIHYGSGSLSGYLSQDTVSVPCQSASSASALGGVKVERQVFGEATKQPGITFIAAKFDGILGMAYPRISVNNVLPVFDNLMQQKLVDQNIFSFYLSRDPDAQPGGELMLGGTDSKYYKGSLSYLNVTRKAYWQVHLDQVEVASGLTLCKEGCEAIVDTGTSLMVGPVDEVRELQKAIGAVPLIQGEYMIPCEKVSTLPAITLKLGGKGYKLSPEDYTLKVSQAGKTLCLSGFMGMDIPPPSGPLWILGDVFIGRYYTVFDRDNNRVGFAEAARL"}, "renin": {"molecular_target": "T1, renin (Homo sapiens, UniProt P00797)", "T1 sequence (P00797 67-406)": "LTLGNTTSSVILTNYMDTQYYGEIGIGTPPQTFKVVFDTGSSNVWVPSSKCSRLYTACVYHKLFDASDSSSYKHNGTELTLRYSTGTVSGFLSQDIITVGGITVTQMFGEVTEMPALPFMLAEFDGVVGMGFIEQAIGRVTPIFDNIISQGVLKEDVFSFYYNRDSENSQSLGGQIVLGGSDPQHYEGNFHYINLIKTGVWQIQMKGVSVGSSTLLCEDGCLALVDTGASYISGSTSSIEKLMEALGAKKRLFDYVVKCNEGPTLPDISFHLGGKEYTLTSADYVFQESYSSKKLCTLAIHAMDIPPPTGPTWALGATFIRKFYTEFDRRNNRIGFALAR"}}, "note": "Where a SMILES comes first, the peptide text is derived from it. [ ]: non-standard residue; d: D form. The star is where a group is joined. Sta = CC(C)C[C@H](N)[C@@H](O)CC(=O)O; Isovaleryl = CC(C)CC(=O)*"}
{"smiles": "CC(C)CC(=O)N[C@H](C(=O)N[C@H](C(=O)N[C@@H](CC(C)C)[C@@H](O)CC(=O)N[C@@H](C)C(=O)N[C@@H](CC(C)C)[C@@H](O)CC(=O)O)C(C)C)C(C)C", "note": "[Pepstatin, RCO-L-Val-L-Val-AHMHA-L-Ala-AHMHA] (Isovaleryl-VV[Sta]A[Sta]-OH)", "values": [{"measurement": "inhibition of pepsin", "setting": "pepsin", "result": "very strongly"}, {"measurement": "inhibition of cathepsin D", "setting": "cathepsin D", "result": "very strongly"}, {"measurement": "inhibition of renin", "setting": "renin", "result": "relative strong inhibiton"}]}
